As usually defined, the IC50 is the concentration that inhibits the measured activity by half.

Here are results for four compounds from ChEMBL document CHEMBL4350984, “Natural products as multidrug resistance modulators in cancer” (Eur J Med Chem, 2019).

For assay [1], the species on record is Homo sapiens. Nature of the assay: Inhibition of BCRP-mediated mitoxantrone efflux in human NCI-H460/MX20 cells assessed as mitoxantrone accumulation at 10 uM after 15 mins by Hoechst 33342 staining based flow cytometry analysis relative to control. The format is cell-based. On the set-up: scale not given: the % may be the effect or the level left. (In general: Flow cytometry measures light scatter and fluorescence of single cells or particles in a stream.)

The nature of assay [2]: Cytotoxicity against human KBv200 cells assessed as reduction in cell viability. The format is functional, cell-based.
Another assay in a line: cells. The note with it: Homo sapiens, 72 h.
The species named for assay [3] is Homo sapiens. Nature of the assay: Inhibition of BCRP-mediated mitoxantrone efflux in human NCI-H460/MX20 cells assessed as mitoxantrone accumulation at 20 uM after 15 mins by Hoechst 33342 staining based flow cytometry analysis relative to control. The format is cell-based. On the set-up: scale not given: the % may be the effect or the level left.

Each structure is given as a SMILES string.

Description for cells: Downregulation of ABCB1 gene expression in human EPG85-257RDB cells after 72 hrs by RT-PCR analysis

As for `COc1ccc2c3c([nH]c2c1)[C@H](C=C(C)C)N1C(=O)[C@@H]2CCCN2C(=O)[C@@H]1C3`, the Activity in the assay filed under Homo sapiens [1] amounted to 100%.
With `COc1ccc2cc1Oc1ccc(cc1)C[C@H]1c3cc(c(OC)cc3CCN1C)Oc1c(OC)c(OC)cc3c1[C@H](C2)N(C)CC3` [FANCHININ], the IC50 in assay [2] stood at 2 µM.
Compound `O=c1c(O)c(-c2ccc(O)c(O)c2)oc2cc(O)cc(O)c12` [QUERCETIN] had an IC50 in “cells” of 12 µM.
`COC(=O)c1c(-c2ccc(O)cc2)c(-c2ccc(O)cc2)cn1CC(=O)c1ccc(OC)cc1`: the Activity in the assay filed under Homo sapiens [3] was determined as 94.5%.
